According to US20240247253A1, “PRODUCTION METHOD OF POLYPEPTIDE, TAG, EXPRESSION VECTOR, EVALUATION METHOD OF POLYPEPTIDE, PRODUCTION METHOD OF NUCLEIC ACID DISPLAY LIBRARY, AND SCREENING METHOD” (FUJIFILM Corporation, priority 2021, published 2024):

System: cell-free peptide synthesis system derived from Escherichia coli
Assay: Cell-free biosynthesis of DHFR partial sequence-HiBiT fusion proteins with tag, 10 minutes, Nano Glo HiBiT quantification
Assay type: biochemical
Description: Regarding the effect of increasing the biosynthesis amount of the polypeptide by the tag (VKKTKT tag) represented by SEQ ID NO: 27, the influence of the length of the polypeptide to be synthesized was examined. The polypeptide to be biosynthesized is a fusion protein containing a partial sequence of dihydrofolate reductase (DHFR) and a luminescent (HiBiT) tag.
A fusion protein in which a partial sequence of DHFR and a HiBiT tag were linked in this order was designed. Gly-Gly-Ser was inserted as a spacer between the partial sequence of DHFR and the HiBiT tag. The amino acid sequences of these fusion proteins are set forth in SEQ ID NOs: 113 and 114, and these fusion proteins are a fusion protein (80 amino acid length) of the amino acids ranging to the amino acid at position 66 from the N-terminal of DHFR with a HiBiT tag and a fusion protein (100 amino acid length) of the amino acids ranging to the amino acid at position 86 from the N-terminal of DHFR with a HiBiT tag. The base sequences encoding these fusion proteins are SEQ ID NOs: 115 and 116.
A base sequence encoding a tagged fusion protein in which methionine, a VKKTKT tag (SEQ ID NO: 27) or a SKIK tag (SEQ ID NO: 107), and a fusion protein (any of SEQ ID NO: 113 or 114) were linked in this order was designed. In this base sequence, a base sequence (SEQ ID NO: 73 or 110) encoding a VKKTKT tag or a SKIK tag is arranged immediately after the start codon ATG, and a base sequence (any of SEQ ID NO: 115 or 116) encoding a fusion protein is arranged immediately after the base sequence encoding the VKKTKT tag or the SKIK tag.
As a control example for evaluating the effect of the VKKTKT tag or the SKIK tag, a base sequence in which a base sequence (any of SEQ ID NO: 115 or 116) encoding each of fusion protein arranged immediately after the start codon ATG was designed.
The fusion protein was expressed using a cell-free peptide synthesis system similar to the cell-free peptide synthesis system used in Example 1 by setting the incubation time of biosynthesis to 10 minutes. The obtained fusion protein was quantified using Nano Glo HiBiT Lytic Detection System (Promega, N3040). The measurement was performed twice, and the average value of the amounts of the fusion protein was calculated. […] The control example of the reference value 1 has a form in which the base sequence (SEQ ID NO: 115 or 116) encoding the fusion protein is arranged immediately after the start codon ATG.

[1] = fusion protein SEQ ID NO 113, amino acid length 80, control without tag = 1
[2] = fusion protein SEQ ID NO 114, amino acid length 100, control without tag = 1

SEQ ID NO: 27: VKKX tag, amino acid sequence VKKTKT (VKKX Tag)
Biosynthesis amount of fusion protein [1]: 1.67
Biosynthesis amount of fusion protein [2]: 1.24

SEQ ID NO: 107: tag consisting of an amino acid sequence of SKIK, disclosed in WO2016/204198A; comparative control (SKIK Tag) [reference compound]
Biosynthesis amount of fusion protein [1]: 1.13
Biosynthesis amount of fusion protein [2]: 0.73
